Literature values in patent US10858526B2, “Water-based ink composition for ink jet recording and coloring material liquid” (Seiko Epson Corporation, priority 2017, dated 2020).

Settings: water-soluble organic solvent

Row | water-octanol partition coefficient (log P) | Compound
1 | 0.28 | CCCC(O)CCO (centres unmarked) [1,3-hexanediol]
2 | 0.56 | CCCCOCCOCCO [butyl diglycol]
